Source: patent US9801371B2, “Self-assembling polymer particle release system” (priority 2010, dated 2017)
Read-outs that look alike come from different tables or passages of the source.

Tests used:
[1] = cited from earlier work
[2] = cited from earlier work; remark: listed apart in the source
[3] = cited from earlier work; remark: listed apart in the source
[4] = Filter paper test: ten 10-ml water washings, UV analysis of AI washed through; type: physicochemical
Description: All of the polymers in this set of experiments were combined with the AI at a 70% AI by weight to 30% polymer by weight concentrations. […] The filter paper samples were applied to a slightly wet Buchner funnel to set the paper evenly and then ten 10-ml aliquots of de-ionized (DI) water were suctioned through the filter paper. Ultraviolet light (UV) analysis for each of the 10-ml fractions was used to determine the absorption of the AI (264 nm) washed through the filter paper and recorded as absorption versus each individual 10-ml wash.
The control for these systems was evaluated by placing methylene chloride solutions of the AI alone or the polymer alone onto the filter paper, drying overnight, and washing with ten 10-ml aliquots of DI water.
The AI was dry ground (mortar and pestle) with urea-formaldehyde flower foam as the cage material [commercial product (Foliage Fresh)] where the ratio of AI to flower foam was 70%/30% by weight. This mixture then was tumbled-coated with an organic solvent solution of a hydrophobic polymer (paraffin wax/hexane; polystyrene/toluene; silicone oil/toluene) in a round bottom flask. […] Small amounts (0.07 g) of the powder were placed on the filter paper and subsequently washed with ten 10-ml aliquots of DI water and analyzed in a similar manner as previously described.
Liquid samples of the AI-polymer combinations and AI control samples were applied to filter paper (Whatman #2) and dried for 24 hours at room temperature. The filter paper containing the AI-polymer combination or the AI control samples were placed in a Buchner funnel under water aspiration vacuum conditions, while ten 10-ml aliquots of water were applied to the top of the filter paper containing the AI-polymer or AI control material, which was then sucked through the filter paper and collected in the receiving flask that holds the funnel-vacuum attachment.
After each 10-ml aliquot of water was suctioned through the filter paper containing the sample, the suctioned solution then was removed and analyzed with a UV spectrometer for any AI that went through the water washing process. The ten 10-ml sequential washings were a simulation of how an AI applied to soil would remain on the soil and migrate through the soil under a rain environmental exposure condition.
Dry 100% solid samples were placed on the filter paper directly and subsequently washed with ten 10-ml aliquots in a similar manner as the liquid samples that were dried after placement on the filter paper.
Various concentrations of the AI's were dissolved in water or water and a co-solvent and analyzed at 254 nm or other UV/visible regions of the spectrum in order to establish a standard calibration curve of absorbance versus AI concentration.

[5] = Soil column test: topsoil column washed with ten 10-ml aliquots of water; type: physicochemical
Experimental: The soil column was prepared by cutting off the tip of a 15 ml VWR brand CAT, No. 20171-036 polypropylene centrifuge tube leaving approximately a ⅛-inch opening, which was filled with cotton to prevent the soil from pouring out the bottom. The cotton block was 0.5-inch thick, which held unpacked 3 inches of Nature's topsoil from the Michigan Peat Co., (Oakland Nursery). The topsoil was sieved ten times through a #7 metal screen sieve to remove large debris before filling the tubes.
A 50-μl sample of the mixture was applied to the filter paper and dried while a 200-μl sample was applied to the top of the soil columns and dried before washing with ten 10-ml aliquots of water.

sugar beet leaves = settings: amorphous wax surface; cited from earlier work
kohlrabi leaves = settings: fine crystalline wax surface; cited from earlier work
[6] = Table 26, USDA Pesticide Properties Database

Structure (SMILES): CN(C)C(=O)Nc1ccccc1 [Fenuron]
- KOC ([1]; Tables 21-25): 42
- Water Solubility [2]: 3850 µg/mL
- Log P [3]: 0.98

Structure (SMILES): COc1c(Cl)ccc(Cl)c1C(=O)O [Dicamba]
- KOC [1, 6]: 2 mg/g
- KOC ([1]; Tables 21-25): 12
- Water Solubility [2]: 250000 µg/mL
- Log P [3]: −1.88

Structure (SMILES): CON(C)C(=O)Nc1ccc(Cl)c(Cl)c1 [Linuron]
- KOC [1, 6]: 400 mg/g
- KOC ([1]; Tables 21-25): 620
- Water Solubility [2]: 63.8 µg/mL

Structure (SMILES): c1ccc2[nH]c(-c3cscn3)nc2c1 [Thiabendazole]
- KOC ([1]; Tables 21-25): 2500
- Water Solubility [2]: 30 µg/mL
- Log P [3]: 2.39

Structure (SMILES): CCCCN(C)C(=O)Nc1ccc(Cl)c(Cl)c1 [Neburon]
- KOC ([1]; Tables 21-25): 2500
- Log P [3]: 3.8

Structure (SMILES): CC(C)N.O=C(O)COc1ccc(Cl)cc1Cl [2,4-D Amine Salt]
- number of 10-ml water washes to pass through / be depleted from the filter paper [4]: 1-2 washes
- controlled-release properties (in words) ([4]; filter paper, 10-ml aliquots of water): no control release capabilities
- % released ([4]; filter paper, 10-ml water washing 1): 94%
- % released ([4]; filter paper, 10-ml water washing 1, listed as 2,4-D Salt): 86%
- % released ([4]; filter paper, 10-ml water washing 2): 6%
- % released ([4]; filter paper, 10-ml water washing 2, listed as 2,4-D Salt): 14%
- % released ([4]; filter paper, 10-ml water washing 3): 0%
- % released ([4]; filter paper, 10-ml water washing 4): 0%
- % released ([4]; filter paper, 10-ml water washing 5): 0%
- % released ([4]; filter paper, 10-ml water washing 6): 0%
- % released ([4]; filter paper, 10-ml water washing 7): 0%
- % released ([4]; filter paper, 10-ml water washing 8): 0%
- % released ([4]; filter paper, 10-ml water washing 9): 0%
- % released ([4]; filter paper, 10-ml water washing 10, * = not all released after 10 washings): 0%
- R (rating factor, number of washings to deplete the AI) ([4]; filter paper, ten 10-ml water washings): 2
- % released ([5]; 10-ml water washing 1): 32%
- % released ([5]; 10-ml water washing 2): 26%
- % released ([5]; 10-ml water washing 3): 20%
- % released ([5]; 10-ml water washing 4): 13%
- % released ([5]; 10-ml water washing 5): 9%
- % released ([5]; 10-ml water washing 6): 0%
- % released ([5]; 10-ml water washing 7): 0%
- % released ([5]; 10-ml water washing 8): 0%
- % released ([5]; 10-ml water washing 9): 0%
- % released ([5]; 10-ml water washing 10): 0%
- R (rating factor, number of washings to deplete the AI) ([5]; ten 10-ml water washings): 5

Structure (SMILES): O=C(O)CNCP(=O)(O)O [Glyphosate]
- capability to penetrate leaf surfaces (sugar beet leaves): very little capability to penetrate leaf surfaces
- capability to penetrate leaf surfaces (kohlrabi leaves): very little capability to penetrate leaf surfaces
